# From ChEMBL document CHEMBL1201862, “PubChem BioAssay data set” (2004)
#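 In this assay, cells in 96-well plates receive the compound at five concentrations for 48 hours. Endpoints are linearly interpolated between the surrounding concentrations. GI50 = concentration required for 50% inhibition of growth.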 The source made the active and inactive calls. Cut-off read from the data, not from the text of the source: active = GI50 up to about 1.1 µM and inactive = higher.
# System: HCC 2998
# Experiment: inhibition of tumour cell growth, NCI panel, 48 h
smiles,measurement,value
c1ccc(-c2ccnc3c2ccc2c(-c4ccccc4)ccnc23)cc1,GI50,3.53 µM (inactive)
